Results: patent US12589143B2, “Human anti-PD-L1 peptide vaccines and methods of their use” (priority 2019, dated 2026)
Where no end group is shown, it is not given here.

Columns and labels:
[1] = tested on: MVF-PD-L1 peptides; test: Immunogenicity in rabbits: ELISA antibody titers of sera vs the immunogen; format: in vivo, New Zealand White rabbits; conditions: after the second boost
Method: (§1) Immunogenicity of MVF-PD-L1 B-cell epitopes. New Zealand White rabbits were immunized with 1 mg of each MVF-peptide immunogens dissolved in dd H2O emulsified (1:1) in Montanide ISA 720 vehicle (Seppic) with 333 μg of N-acetylglucosamine-3yl-acetyl-1-alanyl-d-isoglutamine (nor-MDP). Rabbits were boosted with the same doses at 3-week's intervals. Blood was collected via the central auricular artery in rabbits. Blood was collected weekly (1Y+3, 2Y+1, 2Y+2,2Y+3, 3Y+1, 3Y+2 and sera tested for antibody titers by ELISA using the immunogens MVF-PD-L1 peptides. Sera (terminal) from rabbit (3Y+3) immunized with MVF-PD-1 peptide immunogens were tested individually versus the immunogen by ELISA. 200 ng/well peptide were used in duplicates to coat the ELISA plates. Titers are defined as the highest dilution of sera with an absorbance value of 0.2 after subtracting the blank.
For each peptide, vaccine antibodies were raised using New Zealand white rabbits purchased from Charles River Laboratories (Wilmington, MA, USA). […] Antibody titers were monitored by direct ELISA against the peptide immunogen, the peptide B cell epitope, and an acetylated version of the B-cell epitope. […] Peptide vaccine antibodies were purified by affinity chromatography using a protein A/G column and the concentration was measured by Coomassie protein assay. […]

[2] = tested on: MVF-PD-L1 peptide immunogen; test: Immunogenicity in Balb/c mice, experiment 2 (CT26/HER-2): ELISA of sera vs each MVF-PD-L1 peptide immunogen; format: in vivo; conditions: Balb/c mice
Method: as §1, with “blank. […]” for “blank.”
In order to verify the efficacy of the PD-L1 epitope vaccines in vivo in the CT26/HER-2 carcinoma cell line, Balb/c mice (10 mice/group) were immunized with 100 μg each of MVF-PD-L1 (36-53), MVF-PD-L1 (50-67), MVF-PD-L1 (95-112) and MVF-PD-L1 (130-147) emulsified with nor-MDP and Montanide 720 (1:1 ratio) SCHEME 2A (FIG. 15A). As detailed in SCHEME 2A-D (FIGS. 15A, 15B, 15C, and 15D), mice were immunized 3 times at 3 weeks intervals. […] All PD-L1 epitopes elicited high titers of PD-L1 anti-peptide antibodies by ELISA. […] We also investigated the combination of PD-1(92-110) with PD-L1-95.
For each peptide, vaccine antibodies were raised in New Zealand white rabbits, purchased from Charles River Laboratories (Wilmington, MA, USA). Rabbits were immunized with 1 mg of MVF chimeric peptide emulsified in Montanide ISA 720 (Seppic, Paris, France) and boosted 3 times at three week intervals. For mouse experiments, mice, 6-8 weeks old, were immunized with 0.1 mg of peptide emulsified in ISA720 (1:1 ratio). Mice were boosted with the respective doses at 3-week intervals. Blood was then collected and sera were tested for antibody titers. Sera were collected weekly and peptide vaccine antibodies were purified by affinity chromatography using a protein A/G column and the concentration was measured using Spectrophometer. All experiments were performed in accordance with the U.S. Public Health Service Policy on Humane Care and Use of Laboratory animals and approved by the Ohio State University Institutional Animals Care and Use Committee, detailed in the accepted protocol.
6-8 weeks old BALB/c mice (Charles River, Wilmington, MA) were used as standard animal models. Mouse CT26 colon carcinoma cell line was purchased from American Type Culture Collection Cells and were regularly cultured in RPMI1640 medium containing 10% FBS. CT26/HER2 cells were kindly provided by M. Penichet. Vaccines were dissolved in sterile water and emulsified in Montanide ISA 720 (1:1). Female Balb/c mice (Charles River Laboratories) at the age of 6-8 weeks were immunized three times at 3-week intervals with 100 μg of each peptide vaccine, and 2 weeks after the third immunization, the mice were challenged with CT26 and/or CT26/HER-2 tumor cells, which were implanted subcutaneously (s.c) on the right flank (1×10^5 per mouse). 200 μg of rat α-mouse PD-L1 mAb 10F.9G2 (Bio X Cell, West Lebanon, NH) were administered intraperitoneally (i.p.), twice weekly following tumor inoculation in the control group. Mice were monitored and scored for the formation of palpable tumors on a daily basis and sacrificed if tumors became necrotic or exceeded the predetermined size of 2,000 mm^3. Tumor volumes were measured in cubic millimeters with calipers and calculated with the following formula: A×B^2×0.5, where A is the largest diameter, and B is the widest point perpendicular to length. During immunization, blood was drawn weekly and used in ELISA to monitor antibody titers.

KLLSLIKGVIVHRLEGVEGPSLYRCMISYGGADYKRITVK (KLLSLIKGVIVHRLEGVEGPSLYRCMISYGGADYKRITVK-NH2) [PD-L1(95)]
antibody titers [1]: 64,000
Immunogenicity (titers) 1′ Conc. 1: ([2]; bleed 1Y + 3): 100
Immunogenicity (titers) 1′ Conc. 1: ([2]; bleed 2Y + 1): 12800
Immunogenicity (titers) 1′ Conc. 1: ([2]; bleed 2Y + 2): 64000
Immunogenicity (titers) 1′ Conc. 1: ([2]; bleed 2Y + 3): 64000
Immunogenicity (titers) 1′ Conc. 1: ([2]; bleed 3Y + 1): 128000
Immunogenicity (titers) 1′ Conc. 1: ([2]; bleed 3Y + 2): 128000
Immunogenicity (titers) 1′ Conc. 1: ([2]; bleed 3Y + 3): 128000
